Data taken from patent US5541187A, “6-heterocycyclyl pyrazolo[3,4-d]pyrimidin-4-ones and compositions and method of use thereof” (Sterling Winthrop Inc., priority 1993, dated 1996).
pIC50: −log10 of the molar value. Several values for one entry are separate records, joined by “and”; a condition that tells them apart may be missing. Equal entries are not always repeated. Structures can show the parent of a compound that is named as a salt.

How the values were obtained:
cGMP-PDE I = cGMP-PDE I inhibitory activity (cyclic nucleotide hydrolysis, isolated PDE isozyme); type: biochemical, various animal species and man; details: for pIC50: values marked * are from two separate experimental runs
Method: Multiple isozymic forms of cyclic nucleotide phosphodiesterase (PDE) have been identified in mammalian cells. […] Elevation of intracellular cGMP in vascular smooth muscle triggers a cascade of events that leads to a reduction in muscle tone while elevations in renal tubule cell cGMP stimulates natriuresis and diuresis. Vascular smooth muscle and renal cells contain a phosphodiesterase isozyme that has a low Km (1 μM) for the hydrolysis of cGMP. This isozyme has been referred to as the cGMP-PDE or cGMP-PDE I since it elutes from an anion-exchange sepharose resin in the first peak of PDE activity at a sodium acetate concentration between 150-200 mM. Thus inhibition of the cGMP-PDE isozyme is a viable subcellular mechanism by which increases in cGMP can produce a reduction in total peripheral resistance and a stimulation of natriuresis and diuresis. The development of cGMP-PDE inhibitors represents an approach for the discovery of agents useful for treating heart failure and hypertension. For example, compounds having high inhibitory potency for the cGMP-PDE are expected to lower blood pressure and induce natriuresis and diuresis.
The cGMP-PDE and other PDE isozymes were isolated from cardiovascular tissues (heart and aorta) of various animal species and man by anion-exchange and affinity chromatography as described by Silver et al., Sec. Messeng. Phos. 13:13-25, 1991; PDE activity, in the presence and absence of test compounds was determined essentially as described by Thompson et al., Adv. Cyclic Nucleotide Res. 10:69-92. To determine the potency and selectivity of compounds as PDE inhibitors, compounds are screened for their effect on cyclic nucleotide hydrolysis at 10 μM. If ≥50% inhibition of PDE activity is observed, an IC50 value (concentration of compound causing 50% reduction in PDE activity) and corresponding 95% confidence intervals are generated. The IC50 values are calculated from concentration-response curves as described by Tallarida and Murray, Manual of Pharmacologic Calculations with Computer Programs, Procedure 8, Graded Dose-response, pp. 14-19, Springer-Verlag, N.Y., 1981.

[1] = system: Spontaneously hypertensive rats (SHR); test: Antihypertensive activity in conscious spontaneously hypertensive rats (SHR), iv; type: in vivo; details: Rattus norvegicus, 5 min; for change in vivo at 10 mg/kg / change in vivo at 1 mg/kg / change in vivo at 3 mg/kg: 5 minutes after dose, cumulative dosing, read-out: % change in mean arterial pressure; for ED25: read-out: ED25 (mean arterial pressure)
Method: After a 2 day recovery from surgery, three baseline blood pressure measurements were made at 5 min intervals in conscious SHR. Compounds to be tested or vehicle were then administered intravenously in a dose-dependent manner (0.3-10 mg base/kg) while arterial pressure was recorded continuously on a polygraph. The mean arterial pressure response was measured 5 minutes after the administration of each dose of the test compound and the next dose given in a cumulative dose fashion. The response to each dose of the test compound was calculated as the difference from the mean of the three baseline measurements.

[2] = system: Spontaneously hypertensive rats; test: Procedure 2: in vivo reversal of nitroglycerin tolerance, mean arterial pressure; set-up: species or system rat (spontaneously hypertensive rats)
Method: Spontaneously hypertensive rats (16-19 weeks of age) were made nitroglycerin tolerant by injecting […] nitroglycerin s.c., 3-times/day for 3 days. While conscious and freely moving, the decrease in mean arterial pressure (MAP) in response to a challenge dose of nitroglycerin (10 μg/kg, i.v. bolus) was utilized to confirm tolerance.

pIC50 (cGMP-PDE I) | Structure (SMILES) | Percent Inhibition cGMP-PDE I (cGMP-PDE I; 0.1 μM) | Percent Inhibition cGMP-PDE I (cGMP-PDE I; 1 μM) | ED25 [1] | further results
6.92 | CC(C)(C)n1[nH]c(Cc2ccncc2)c2c(=O)nc(-c3ccncc3)nc1-2 [Example 123d, 1-tert-butyl-3-(4-pyridylmethyl)-6-(4-pyridyl)-pyrazolo[3,4-d]pyrimidin-4-one] | 55% | 90% | – | change in vivo at 10 mg/kg [1]: -7%
8.22 | COc1ccc(Cc2[nH]n(C(C)(C)C)c3nc(-c4ccncc4)nc(=O)c2-3)cc1OC [Example 4e, 1-tert-Butyl-3-(3,4-dimethoxybenzyl)-6-(4-pyridyl) pyrazolo[3,4-d]pyrimidin-4-one] | – | – | – | Percent Inhibition cGMP-PDE I (cGMP-PDE I; 0.01 μM): 69%; change in vivo at 10 mg/kg [1]: -2%
6.43 | Cc1nn(C2CCCC2)c2nc(-c3ccncc3)[nH]c(=O)c12 [Example 83] | – | – | 1 mg/kg | change in MAP at threshold dose of the compound ([2]; 1 mg/kg, i.v., threshold dose): approximately 10 mmHg; change in MAP in response to nitroglycerin injection after pretreatment with the compound ([2]; nitroglycerin tolerant rats (n=12), compound 1 mg/kg i.v., then nitroglycerin 10 μg/kg): -35 mmHg
6.42 | Cc1nn(C(C)(C)C)c2nc(-c3ccncc3)[nH]c(=O)c12 [Example 93] | – | – | 6.5 mg/kg | –
6.11 | Cc1[nH]n(C2CCCC2)c2nc(-c3ccc4ncccc4c3)nc(=O)c1-2 [Example 14c, 1-Cyclopentyl-3-methyl-6-(6-quinolinyl)-pyrazolo [3,4-d]-pyrimidin-4-one] | – | – | 7.8 mg/kg | –
8.80 | CCOc1cnccc1-c1nc2n(C3CCCC3)[nH]c(CC)c-2c(=O)n1 [Example 119d, 1-Cyclopentyl-3-ethyl-6-(3-ethoxy-4-pyridyl)pyrazolo[3,4-d]pyrimidin-4-one] | 90% | – | 4.8 mg/kg | change in vivo at 3 mg/kg [1]: -24%; change in vivo at 10 mg/kg [1]: -36%
6.25 | Cc1nn(C2CCCC2)c2nc(-c3cccnc3)[nH]c(=O)c12 [Example 98] | – | – | 4.1 mg/kg | –
7.01 | Cc1[nH]n(C2CCCC2)c2nc(-c3ccnc4ccccc34)nc(=O)c1-2 [Example 13b, 1-Cyclopentyl-3-methyl-6-(4-quinolinyl)-pyrazolo [3,4-d]-pyrimidin-4-one] | – | – | – | change in vivo at 1 mg/kg [1]: -17%; change in vivo at 3 mg/kg [1]: -14%
7.44 | CCc1[nH]n(C2CCCC2)c2nc(-c3ccncc3OC)nc(=O)c1-2 [Example 128c, 1-Cyclopentyl-3-ethyl-6-(3-methoxy-4-pyridyl)pyrazolo[3,4-d]pyrimidin-4-one] | 71% | – | 0.23 mg/kg | Percent Inhibition cGMP-PDE I (cGMP-PDE I; 0.01 μM): 54%; change in vivo at 10 mg/kg [1]: -48%
8.74 and 8.60 | CCOc1cnccc1-c1nc2n(C3CCCC3)[nH]c(C(F)(F)F)c-2c(=O)n1 [Example 127c, 1-Cyclopentyl-3-trifluoromethyl-6-(3-ethoxy-4-pyridyl)pyrazolo[3,4-d]pyrimidin-4-one] | 93% | – | – | Percent Inhibition cGMP-PDE I (cGMP-PDE I; 0.01 μM): 79%; change in vivo at 10 mg/kg [1]: -14%
6.55 | CCc1[nH]n(C2CCCC2)c2nc(C3CCNc4ccccc43)nc(=O)c1-2 (centres unmarked) [Example 9, 1-Cyclopentyl-3-ethyl-6-(1,2,3,4-tetrahydro-4-quinolinyl)-pyrazolo[3,4-d]pyrimidin-4-one] | – | – | – | –
6.35 and 6.43 | CCc1nn(C2CCCC2)c2nc(-c3ccncc3)[nH]c(=O)c12 [Example 75] | – | – | 1.7 mg/kg | –
6.82 | CCc1nn(C2CCCC2)c2nc(-c3ccnc(OCCN4CCOCC4)c3)[nH]c(=O)c12 [Example 124c, hydrate] | 50% | 86% | 10.1 mg/kg | Percent Inhibition cGMP-PDE I (cGMP-PDE I; 0.01 μM): 19%; change in vivo at 3 mg/kg [1]: -14%; change in vivo at 10 mg/kg [1]: -24%
6.70 | Cc1nn(Cc2cccc(Cl)c2)c2nc(-c3ccncc3)[nH]c(=O)c12 [Example 81] | – | – | – | –

More lines, now with the values behind:

Structure (SMILES) | pIC50 (cGMP-PDE I) | Percent Inhibition cGMP-PDE I (cGMP-PDE I; 0.1 μM) | Percent Inhibition cGMP-PDE I (cGMP-PDE I; 1 μM) | ED25 [1] | further results
CC(C)(C)n1nc(Cc2ccccc2)c2c(=O)[nH]c(-c3ccncc3)nc21 [Example 90] | – | – | – | – | change in vivo at 1 mg/kg [1]: -6%
CCc1[nH]n(C2CCCC2)c2nc(-n3ccnc3)nc(=O)c1-2 [Example 122d, 1-Cyclopentyl-3-ethyl-6-(1-imidazolyl)pyrazolo[3,4-d]pyrimidin-4-one] | – | – | 16% | – | Percent Inhibition cGMP-PDE I (cGMP-PDE I; 10 μM): 46%
CCc1[nH]n(C2CCCC2)c2nc(-c3ccncc3OC(C)CC)nc(=O)c1-2 (centres unmarked) [Example 132b, 1-Cyclopentyl-3-ethyl-6-(3-sec-butoxy-4-pyridyl)pyrazolo[3,4-d]pyrimidin-4-one] | – | – | – | – | Percent Inhibition cGMP-PDE I (cGMP-PDE I; 0.01 μM): 90%; change in vivo at 1 mg/kg [1]: -9%; change in vivo at 3 mg/kg [1]: -8%; change in vivo at 10 mg/kg [1]: -12%
CCc1[nH]n(C2CCCC2)c2nc(-c3ccnc(N4CCOCC4)c3)nc(=O)c1-2 [Example 129c, 1-Cyclopentyl-3-ethyl-6-(2-(4-morpholinyl)-4-pyridyl)pyrazolo[3,4-d]pyrimidin-4-one] | – | 35% | 64% | – | –
N#Cc1[nH]n(C2CCCC2)c2nc(-c3ccncc3)nc(=O)c1-2 [Example 100, 1-Cyclopentyl-3-cyano-6-(4-pyridyl)-pyrazolo-[3,4-d]pyrimidin-4-one] | – | – | 9% | – | Percent Inhibition cGMP-PDE I (cGMP-PDE I; 10 μM): 35%
CC(C)(C)c1nn(C2CCCC2)c2nc(-c3ccncc3)[nH]c(=O)c12 [Example 95] | – | – | 9% | – | Percent Inhibition cGMP-PDE I (cGMP-PDE I; 10 μM): 32%
CCc1[nH]n(C2CCCC2)c2nc(-c3cccnc3)nc(=O)c1-2 [Example 137, 1-Cyclopentyl-3-ethyl-6-(3-pyridyl)pyrazolo[3,4-d]pyrimidin-4-one] | – | 27% | 64% | – | –
CCc1[nH]n(C2CCCC2)c2nc(-c3cc(C)nc(Cl)c3)nc(=O)c1-2 [Example 117, 1-Cyclopentyl-3-ethyl-6-(2-chloro-6-methyl-4-pyridyl)pyrazolo[3,4-d]pyrimidin-4-one] | – | – | 11% | – | Percent Inhibition cGMP-PDE I (cGMP-PDE I; 10 μM): 22%
Cc1nn(C2CCCC2)c2nc(C3CCNCC3)[nH]c(=O)c12 [Example 109, 1-Cyclopentyl-3-methyl-6-(4-piperidinyl)-pyrazolo[3,4-d]-pyrimidin-4-one monohydrochloride. 1/2 hydrate] | – | – | 7% | – | Percent Inhibition cGMP-PDE I (cGMP-PDE I; 10 μM): 13%
COc1cnccc1-c1nc2n(C(C)(C)C)[nH]c(Cc3ccncc3)c-2c(=O)n1 [Example 134b, 1-tert-Butyl-3-(4-pyridylmethyl)-6-(3-methoxy-4-pyridyl)pyrazolo[3,4-d]pyrimidin-4-one] | – | 55% | – | – | Percent Inhibition cGMP-PDE I (cGMP-PDE I; 0.01 μM): 35%
Cc1[nH]n(C2CCCC2C)c2nc(-c3ccncc3)nc(=O)c1-2 (centres unmarked) [Example 1e, 1-(2-Methylcyclopentyl)-3-methyl-6-(4-pyridyl)pyrazolo [3,4-d]pyrimidin-4-one] | – | 23% | 59% | – | –
COc1cnccc1-c1nc2n(C3CCCC3)[nH]c(C(F)(F)F)c-2c(=O)n1 [Example 135, 1-Cyclopentyl-3-trifluoromethyl-6-(3-methoxy-4-pyridyl)pyrazolo[3,4-d]pyrimidin-4-one] | – | 68% | 88% | – | Percent Inhibition cGMP-PDE I (cGMP-PDE I; 0.01 μM): 36%
